Data from US11479568B2, “Silacrown ethers, pharmaceutical compositions thereof, and therapeutic applications thereof” (priority 2020, dated 2022).

Legend:
[1] = system: vascular smooth muscle tissue; experiment: Vascular tissue contractile response (muscle bath, KCl-contracted tissue); format: cell-based, white New Zealand rabbits and human; conditions: cumulative 10^-8 to 10^-5 M, tissue contracted with KCl, FIG. 1 and FIG. 2
Method: Ginsburg (Stanford University Medical School), crown and silacrown ethers in concentrations of 10^−8M, 10^−7 M, 10^−6 M and 10^−5M were prepared fresh daily in deionized water. The 10^−5 M concentrations were used for the preliminary screening of the ionophores for vasoactivity to determine the most promising candidates. The procedures utilized in the removal and preparation of vascular smooth muscle tissue obtained from aorta of white New Zealand rabbits and human hearts from transplant patients are well established and have been successfully utilized by the personnel at Stanford University Medical School (Cardiology Department). A computer interfaced muscle bath system designed by Dr. Robert Ginsburg and associates was used to carry out the experimental procedure. The chambers (32 per system) were filled with standard Tyrode solution (chambers maintain a constant volume of 100 ml) and aerated continuously. The tissues were placed in the chambers and connected to stainless steel hooks to a linear motion transducer and preequilibrated for 1.5 hours at a constant temperature of 37° C. (a tension of 0.5 g was maintained during the pre-equilibration period).
A starting tension of approximately 0.5 g was achieved before adding the agonist ([…] KCl final concentration) to contract the tissues. After the contractions leveled off, the tensions were recorded before and after the crown ethers were added. To test for tissue integrity, 10^−5 M nitroglycerin was added at the end of the experiment (some relaxation should be observed), and the tension was recorded. […]
Accumulative dose response curves were obtained by repeating the previous procedure on both human and rabbit vascular smooth muscle tissues as previously described. However, crown ether concentrations of 10^−8 M, 10^−7 M, 10^−6 M and 10^−5 M were added accumulatively instead of only one dose (10^−5 M was used to screen the crowns) and the tensions recorded for each concentration (before the next concentration of ionophore was added, the contractile tension of the tissue had leveled off).

mice = conditions: reported by Gad et al.; cited from earlier work
[2] = system: adult albino Sprague-Dawley rats; experiment: Acute oral toxicity study in rats (GLP); format: in vivo, rat
Description: (§1) No mortality was observed during the study. […] Animals were asymptomatic by day 3. […] Thus, crown ethers and silacrown ethers of similar cavity size behave similarly, but the silacrown ethers have dramatically lower toxicity.

[3] = Acute oral toxicity study in rats (GLP); format: in vivo, rat; conditions: rat, in vivo, adult albino Sprague-Dawley rats
Description: as §1

Compound	contractile response of vascular smooth muscle tissue (relaxation) [1]	LD50 acute oral toxicity (mice) [mg/kg]	other results
12-crown-6 [Example 12-crown-6]	similar		
C[Si]1(C)OCCOCCOCCO1 [1,1-dimethylsila-11-crown-4]	similar		
C1COCCOCCOCCO1 [Example 12-crown-4, 12-crown-4]		2830	
C1COCCOCCOCCOCCO1 [Example 15-crown-5, 15-crown-5]		2100	
C1CCC2OCCOCCOC3CCCCC3OCCOCCOC2C1 (stereo not drawn) [dicyclohexano-18-crown-6]		176	
C1CCC2OCCOCCOCCOC3CCCCC3OCCOCCOCCOC2C1 (stereo not drawn) [dicyclohexano-24-crown-8]		75	
C[Si]1(C)OCCOCCOCCOCCO1 [dimethylsila-14-crown-5]			acute oral LD50 [2]: 9,900 mg/kg
C[Si]1(C)OCCOCCOCCOC2CCCCC2O1 (stereo not drawn) [dimethylsila-14-cyclohexylcrown-5, Dimethylsila-14-cyclohexylcrown-5]			LD50 [3]: > 5000 mg/kg
C[Si]1(C)OCCOCCOCCOCCOCCO1 [dimethylsila-17-crown-6]	similar		
